Laboratory results reported in patent publication US6156700A, “3-(1,2-Benzisothiazol- and isoxazol-5-yl)-2,4(1H,3H)-pyrimidinedione or thione and 3-(1,2-benzisothiazol- and isoxazol-5-yl)-4(3H)-pyrimidinone or thione herbicidal agents” (American Cyanmid Company, priority 1998, dated 2000).

Tests used:
[1] = test system: Velvetleaf, Abutilon theophrasti; test: Postemergence herbicidal evaluation, ABUTH; format: in vivo, Medic.; conditions: 0.0630 kg/ha
Summary of the method: (§1)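 Approximately two-week-old seedlings received a spray of active compound equivalent to about 0.0157–0.500 kg/ha. The carrier was acetone/water (50/50) with 0.5% TWEEN 20. Plants were kept on greenhouse benches and assessed 0–9 versus control after four to five weeks.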

[2] = test system: Ragweed, Common, Ambrosia artemisifolia; test: Postemergence herbicidal evaluation, AMBEL; format: in vivo, L.; conditions: 0.0630 kg/ha
Summary of the method: as §1

[3] = test system: Sicklepod, Cassia obtusifolia; test: Postemergence herbicidal evaluation, CASOB; format: in vivo, L.; conditions: 0.0630 kg/ha
Summary of the method: as §1

[4] = test system: Lambsquarters, Common, Chenopodium album; test: Postemergence herbicidal evaluation, CHEAL; format: in vivo, L.; conditions: 0.0630 kg/ha
Summary of the method: as §1

Galium, Galium aparine [5] = test: Postemergence herbicidal evaluation, GALAP; format: in vivo; conditions: 0.0630 kg/ha
Summary of the method: as §1

[6] = test system: Morningglory, Ivyleaf, Ipomoea hederacea; test: Postemergence herbicidal evaluation, IPOHE; format: in vivo, (L.) Jacq.; conditions: 0.0630 kg/ha
Summary of the method: as §1

[7] = test system: Barnyardgrass, Echinochloa crus-galli; test: Postemergence herbicidal evaluation, ECHCG; format: in vivo, (L.) Beau; conditions: 0.0630 kg/ha
Summary of the method: as §1

[8] = test system: Foxtail, Green, Setaria viridis; test: Postemergence herbicidal evaluation, SETVI; format: in vivo, (L.) Beau; conditions: 0.0630 kg/ha
Summary of the method: as §1

[9] = test system: Soybean, Williams, Glycine max; test: Postemergence herbicidal evaluation, GLXMAW; format: in vivo, (L.) Merr. cv Williams; conditions: 0.0630 kg/ha
Summary of the method: as §1

[10] = test system: Rice, Tebonnet, Oryza sativa; test: Postemergence herbicidal evaluation, ORYSAT; format: in vivo, (L.) Tebonnet; conditions: 0.0630 kg/ha
Summary of the method: as §1

[11] = test system: Wheat, Winter, cv Riband, Triticum aestivum; test: Postemergence herbicidal evaluation, TRZAWR; format: in vivo; conditions: 0.0630 kg/ha
Summary of the method: as §1

Corn, Field, Zea mays [12] = test: Postemergence herbicidal evaluation, ZEAMX; format: in vivo, L.; conditions: 0.0630 kg/ha
Summary of the method: as §1

[13] = test system: Velvetleaf, Abutilon theophrasti; test: Preemergence herbicidal evaluation, ABUTH; format: in vivo, Medic.; conditions: 0.2500 kg/ha
From the text: (§2) Results of herbicide evaluation are expressed on a rating scale (0-9). The scale is based upon a visual observation of plant stand, vigor, malformation, size, chlorosis and overall plant appearance as compared with a control.
(§3) The preemergence herbicidal activity of the test compounds of the present invention is exemplified by the following tests in which the seeds of a variety of monocotyledonous and dicotyledonous plants are separately mixed with potting soil and planted on top of approximately one inch of soil in separate pint cups. After planting, the cups are sprayed with the selected aqueous acetone solution containing test compound in sufficient quantity to provide the equivalent of about 0.0156 to 0.500 kg per hectare of test compound per cup. The treated cups are then placed on greenhouse benches, watered and cared for in accordance with conventional greenhouse procedures. From four to five weeks after treatment, the tests are terminated and each cup is examined and rated according to the rating system provided in Example 185.
(§4) The compounds evaluated are reported by compound number given in Example 185.

[14] = test system: Ragweed, Common, Ambrosia artemisifolia; test: Preemergence herbicidal evaluation, AMBEL; format: in vivo, L.; conditions: 0.2500 kg/ha
From the text: as §2, §3, §4

[15] = test system: Sicklepod, Cassia obtusifolia; test: Preemergence herbicidal evaluation, CASOB; format: in vivo, L.; conditions: 0.2500 kg/ha
From the text: as §2, §3, §4

[16] = test system: Lambsquarters, Common, Chenopodium album; test: Preemergence herbicidal evaluation, CHEAL; format: in vivo, L.; conditions: 0.2500 kg/ha
From the text: as §2, §3, §4

Galium, Galium aparine [17] = test: Preemergence herbicidal evaluation, GALAP; format: in vivo; conditions: 0.2500 kg/ha
From the text: as §2, §3, §4

[18] = test system: Morningglory, Ivyleaf, Ipomoea hederacea; test: Preemergence herbicidal evaluation, IPOHE; format: in vivo, (L.) Jacq.; conditions: 0.2500 kg/ha
From the text: as §2, §3, §4

[19] = test system: Barnyardgrass, Echinochloa crus-galli; test: Preemergence herbicidal evaluation, ECHCG; format: in vivo, (L.) Beau; conditions: 0.2500 kg/ha
From the text: as §2, §3, §4

[20] = test system: Foxtail, Green, Setaria viridis; test: Preemergence herbicidal evaluation, SETVI; format: in vivo, (L.) Beau; conditions: 0.2500 kg/ha
From the text: as §2, §3, §4

[21] = test system: Soybean, Williams, Glycine max; test: Preemergence herbicidal evaluation, GLXMAW; format: in vivo, (L.) Merr. cv Williams; conditions: 0.2500 kg/ha
From the text: as §2, §3, §4

[22] = test system: Rice, Tebonnet, Oryza sativa; test: Preemergence herbicidal evaluation, ORYSAT; format: in vivo, (L.) Tebonnet; conditions: 0.2500 kg/ha
From the text: as §2, §3, §4

[23] = test system: Wheat, Winter, cv Riband, Triticum aestivum; test: Preemergence herbicidal evaluation, TRZAWR; format: in vivo; conditions: 0.2500 kg/ha
From the text: as §2, §3, §4

Corn, Field, Zea mays [24] = test: Preemergence herbicidal evaluation, ZEAMX; format: in vivo, L.; conditions: 0.2500 kg/ha
From the text: as §2, §3, §4

SMILES | herbicide rating (0-9) [1] | herbicide rating (0-9) [2] | herbicide rating (0-9) [4] | herbicide rating (0-9) (Galium, Galium aparine [5]) | herbicide rating (0-9) [6] | herbicide rating (0-9) [7] | herbicide rating (0-9) [8] | herbicide rating (0-9) [9] | herbicide rating (0-9) [10] | herbicide rating (0-9) [11] | herbicide rating (0-9) (Corn, Field, Zea mays [12]) | herbicide rating (0-9) [13] | herbicide rating (0-9) [14] | herbicide rating (0-9) [15] | herbicide rating (0-9) [16] | herbicide rating (0-9) (Galium, Galium aparine [17]) | herbicide rating (0-9) [18] | herbicide rating (0-9) [19] | herbicide rating (0-9) [20] | herbicide rating (0-9) [21] | further results
COC(=O)C(C)Oc1ccc(C(C)C)cc1-c1nsc2ccc(-n3c(=O)cc(C(F)(F)F)n(C)c3=O)cc12 (stereo not drawn) [Compound 30, Methyl 2-{2-{5-[3,6-dihydro-3-methyl-4-(trifluoromethyl)-2,6-dioxo-1(2H)-pyrimidinyl]-1,2-benzisothiazol-3-yl}-4-isopropylphenoxy}propionate] | 9.0 | 9.0 | 9.0 | 5.0 | 9.0 | 9.0 | 9.0 | 7.0 | 7.5 | 7.5 | 9.0 | 9.0 | 9.0 | 9.0 | 9.0 | 7.0 | 9.0 | 7.0 | 9.0 | 6.0 | herbicide rating (0-9) [3]: 9.0; herbicide rating (0-9) [22]: 6.0; herbicide rating (0-9) [23]: 7.0; herbicide rating (0-9) (Corn, Field, Zea mays [24]): 7.0
COc1c(C)cc(C)cc1-c1nsc2ccc(-n3c(=O)cc(C(F)(F)F)n(C)c3=O)cc12 [Compound 18, 3-[3-(2-Methoxy-3,5-xylyl)-1,2-benzisothiazol-5-yl]-1-methyl-6-(trifluoromethyl)-2,4(1H,3H)-pyrimidinedione] | 9.0 | 6.0 | 9.0 | 5.0 | 9.0 | 4.0 | 5.0 | 4.0 | 2.0 | 2.5 | 5.0 | 9.0 | 9.0 | 4.0 | 9.0 | 1.0 | 4.0 | 5.0 | 9.0 | 2.0 | herbicide rating (0-9) [22]: 0.0; herbicide rating (0-9) [23]: 0.0; herbicide rating (0-9) (Corn, Field, Zea mays [24]): 3.0
Cn1c(C(F)(F)F)cc(=O)n(-c2ccc3onc(-c4ccccc4)c3c2)c1=O [Compound 25, 1-Methyl-3-(3-phenyl-1,2-benzisoxazol-5-yl)-6-(trifluoromethyl)-2,4 (1H,3H)-pyrimidinedione] | 9.0 | 5.0 | 9.0 | 5.0 | 8.0 | 2.0 | 7.0 | 7.0 | 3.5 | 3.5 | 4.5 | 9.0 | 9.0 | 9.0 | 9.0 | 8.0 | 9.0 | 9.0 | 9.0 | 9.0 | herbicide rating (0-9) [22]: 7.0; herbicide rating (0-9) [23]: 7.0; herbicide rating (0-9) (Corn, Field, Zea mays [24]): 7.0
COC(=O)COc1c(C)cc(C)cc1-c1nsc2ccc(-n3c(=O)cc(C(F)(F)F)n(C)c3=O)cc12 [Compound 26, Methyl {{6-{5-[3,6-dihydro-3-methyl-2,6-dioxo-4-(trifluoromethyl)-1(2H)-pyrimidinyl]-1,2-benzisothiazol-3-yl}-2,4-xylyl}oxy}acetate] | 9.0 | 9.0 | 9.0 | 9.0 | 9.0 | 9.0 | 9.0 | 7.5 | 2.0 | 8.0 | 7.0 | 9.0 | 9.0 | 9.0 | 9.0 | 4.0 | 7.0 | 7.0 | 9.0 | 6.0 | herbicide rating (0-9) [3]: 6.0; herbicide rating (0-9) [22]: 5.0; herbicide rating (0-9) [23]: 5.0; herbicide rating (0-9) (Corn, Field, Zea mays [24]): 7.0
COc1ccc(C)cc1-c1nsc2ccc(-n3c(=O)cc(C)n(C)c3=O)cc12 [Compound 24, 3-[3-(6-Methoxy-m-tolyl)-1,2-benzisothiazol-5-yl]-1,6-dimethyl-2,4(1H,3H)-pyrimidinedione] | 7.0 | 3.0 | 0.0 | 0.0 | 4.0 | 0.0 | 0.0 | 3.0 | 0.5 | 3.0 | 5.0 | 9.0 | 5.0 | 4.0 | 9.0 | 3.0 | 9.0 | 3.0 | 5.0 | 1.0 | herbicide rating (0-9) [22]: 0.0; herbicide rating (0-9) [23]: 0.0; herbicide rating (0-9) (Corn, Field, Zea mays [24]): 2.0
COC(=O)C(C)Oc1c(C)cc(C)cc1-c1nsc2ccc(-n3c(=O)cc(C(F)(F)F)n(C)c3=O)cc12 (stereo not drawn) [Compound 27, Methyl 2-{{6-{5-[3,6-dihydro-3-methyl-2,6-dioxo-4-(trifluoromethyl)-1(2H)-pyrimidinyl]-1,2-benzisothiazol-3-yl}-2,4-xylyl}oxy}propionate] | 9.0 | 9.0 | 9.0 | 9.0 | 9.0 | 7.0 | 7.0 | 7.0 | 4.5 | 8.5 | 7.0 | 9.0 | 9.0 | 9.0 | 9.0 | 2.0 | 6.0 | 7.0 | 9.0 | 9.0 | herbicide rating (0-9) [3]: 4.0; herbicide rating (0-9) [22]: 2.0; herbicide rating (0-9) [23]: 5.0; herbicide rating (0-9) (Corn, Field, Zea mays [24]): 4.0
